US20060063784A1, “Method of using substituted pyrazolo [1,5-a] pyrimidines” (priority 2004, published 2006)
Where two headings read alike, the source gives them in different places.

Key:
[1] = system: 80S14 (p21-deficient) cells; assay: Cytotoxicity assay using isogenic cell lines: IC50 in 80S14 (p21-deficient) cells, SRB; type: cell-based, human
How it was run: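 IC50 is the concentration halving proliferation relative to untreated controls, read from SRB absorbance (560 nm) after TCA fixation. Test agent dilutions (5 pM–50 μM or 170 pg/ml–10 μg/ml) were left on p21-deficient 80S14 cells (12,000/well, pre-incubated overnight) for 5 days at 37 °C.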

LoVo Colon cell line = assay: Cytotoxicity assay using LoVo colon cell line, SRB; type: cell-based; details: read-out: Inhibition of LoVo
How it was run: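 Growth inhibition read by sulforhodamine B after 4-day compound exposure at 37 °C. Colon LoVo cells plated at 4000 per well in RPMI/10% FBS a day earlier; doses ranged 5 pM-20 μM or 170 pg/ml-10 μg/ml. IC50 is the concentration halving proliferation versus untreated wells.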

[2] = Homo sapiens, 120 h, 80S14 (p21-deficient) cells, 5 days, SRB, class symbols, read-out: IC50 for 80S14
[3] = Homo sapiens, 96 h, Cellular activity in LoVo cell, 4 days incubation, SRB
[4] = Homo sapiens, 120 h, 80S14 p21-deficient cells, 5 days incubation, SRB, read-out: IC50 for 80SI4
[5] = Homo sapiens, 96 h, LoVo colon cells, 4 days incubation, SRB

## CC(C)(C)CCNc1cccc(-c2ccnc3c(C(=O)c4cccs4)cnn23)c1 [Example 372, (7-{3-[(3,3-Dimethylbutyl)amino]phenyl}pyrazolo[1,5-a]pyrimidin-3-yl)(thien-2-yl)methanone]
[1]; [2]
  IC50: < 1 µM
LoVo Colon cell line; [3]
  IC50: < 100 nM

## CC(C)CC(=O)Nc1cccc(-c2ccnc3c(-c4cccc(Cl)c4)cnn23)c1 [Example 471, N-{3-[3-(3-Chlorophenyl)pyrazolo[1,5-a]pyrimidin-7-yl]phenyl}-3-methylbutanamide]
[1]; [2]
  IC50: 10 to 50 µM
LoVo Colon cell line; [3]
  IC50: 1000 to 20000 nM

## O=C(c1cccs1)c1cnn2c(-c3cccc(NC/C=C/c4ccc([N+](=O)[O-])cc4)c3)ccnc12 [Example 398, [7-(3-{[(2E)-3-(4-Nitrophenyl)prop-2-enyl]amino}phenyl)pyrazolo[1,5-a]pyrimidin-3-yl] (thien-2-yl)methanone]
[1]; [2]
  IC50: 10 to 50 µM
LoVo Colon cell line; [3]
  IC50: 1000 to 20000 nM

## CC(C)CC(=O)Nc1cccc(-c2ccnc3c(-c4cccc(CN5CCN(C)CC5)c4)cnn23)c1 [Example 489, 3-Methyl-N-[3-(3-{3-[(4-methylpiperazin-1-yl)methyl]phenyl}pyrazolo[1,5-a]pyrimidin-7-yl)phenyl]butanamide]
[1]; [2]
  IC50: 1 to 10 µM
LoVo Colon cell line; [3]
  IC50: 1000 to 20000 nM

## CC(CC(=O)Nc1cc(-c2ccnc3c(C(=O)c4cccs4)cnn23)ccc1F)C(F)(F)F (stereo not shown) [Example 356, 4,4,4-Trifluoro-N-{2-fluoro-5-[3-(thien-2-ylcarbonyl)pyrazolo[1,5-a]pyrimidin-7-yl]phenyl}-3-methylbutanamide]
[1]; [2]
  IC50: < 1 µM
LoVo Colon cell line; [3]
  IC50: < 100 nM

## O=C(c1cccs1)c1cnn2c(-c3cccc(N4CCCC4=O)c3)ccnc12 [Example 437, 1-{3-[3-(Thien-2-ylcarbonyl)pyrazolo[1,5-a]pyrimidin-7-yl]phenyl}pyrrolidin-2-one]
[1]; [2]
  IC50: < 1 µM
LoVo Colon cell line; [3]
  IC50: < 100 nM

## O=C(c1cccs1)c1cnn2c(-c3cccc(NCc4ccco4)c3)ccnc12 [Example 367, (7-{3-[(2-Furylmethyl)amino]phenyl}pyrazolo[1,5-a]pyrimidin-3-yl)(thien-2-yl)methanone]
[1]; [2]
  IC50: 1 to 10 µM
LoVo Colon cell line; [3]
  IC50: 100 to 1000 nM

## Nc1cc(-c2ccnc3c(C(=O)c4cccs4)cnn23)ccc1F [Example 352, [7-(3-Amino-4-fluorophenyl)pyrazolo[1,5-a]pyrimidin-3-yl](thien-2-yl)methanone]
[1]; [2]
  IC50: 1 to 10 µM
LoVo Colon cell line; [3]
  IC50: 1000 to 20000 nM

## CCCCCCCCCC(C)CNc1cccc(-c2ccnc3c(C(=O)c4cccs4)cnn23)c1 (stereo not shown) [Example 447, (7-{3-[(2-Methylundecyl)amino]phenyl}pyrazolo[1,5-a]pyrimidin-3-yl)(thien-2-yl)methanone]
[1]; [2]
  IC50: 10 to 50 µM
LoVo Colon cell line; [3]
  IC50: 1000 to 20000 nM

## CCCCNC(=S)Nc1cccc(-c2ccnc3c(C(=O)c4cccs4)cnn23)c1 [Example 364, N-Butyl-N′-{3-[3-(thien-2-ylcarbonyl)pyrazolo[1,5-a]pyrimidin-7-yl]phenyl}thiourea]
[1]; [2]
  IC50: < 1 µM
LoVo Colon cell line; [3]
  IC50: < 100 nM

## CC(C)CC(=O)Nc1cccc(-c2ccnc3c(-c4ccc(Cl)cc4)cnn23)c1 [Example 472, N-{3-[3-(4-Chlorophenyl)pyrazolo[1,5-a]pyrimidin-7-yl]phenyl}-3-methylbutanamide]
[1]; [2]
  IC50: 10 to 50 µM
LoVo Colon cell line; [3]
  IC50: 1000 to 20000 nM

## O=C(c1cccs1)c1cnn2c(-c3cccc(NCC=C(c4ccccc4)c4ccccc4)c3)ccnc12 [Example 399, (7-{3-[(3,3-Diphenylprop-2-enyl)amino]phenyl}pyrazolo[1,5-a]pyrimidin-3-yl)(thien-2-yl)methanone]
[1]; [2]
  IC50: 10 to 50 µM
LoVo Colon cell line; [3]
  IC50: 1000 to 20000 nM

## CC(C)CC(=O)Nc1cccc(-c2ccnc3c(-c4ccc(Cl)c(Cl)c4)cnn23)c1 [Example 474, N-{3-[3-(3,4-Dichlorophenyl)pyrazolo[1,5-a]pyrimidin-7-yl]phenyl}-3-methylbutanamide]
[1]; [2]
  IC50: 10 to 50 µM
LoVo Colon cell line; [3]
  IC50: 1000 to 20000 nM

## Nc1cc(-c2ccnc3c(C(=O)c4cccs4)cnn23)cs1 [Example 331, [7-(5-Aminothien-3-yl)pyrazolo[1,5-a]pyrimidin-3-yl](thien-2-yl)methanone]
[1]; [2]
  IC50: 1 to 10 µM
LoVo Colon cell line; [3]
  IC50: 1000 to 20000 nM

## CC(C)CC(=O)Nc1cccc(-c2ccnc3c(-c4cccc(Cl)c4Cl)cnn23)c1 [Example 473, N-{3-[3-(2,3-Dichlorophenyl)pyrazolo[1,5-a]pyrimidin-7-yl]phenyl}-3-methylbutanamide]
[1]; [2]
  IC50: 1 to 10 µM
LoVo Colon cell line; [3]
  IC50: 100 to 1000 nM

## CN(C)c1ccc(-c2ccnc3c(C(=O)c4cccs4)cnn23)cc1NC(=O)c1ccccc1Cl [Example 421, 2-Chloro-N-{2-(dimethylamino)-5-[3-(thien-2-ylcarbonyl)pyrazolo[1,5-a]pyrimidin-7-yl]phenyl}benzamide]
[1]; [2]
  IC50: < 1 µM
LoVo Colon cell line; [3]
  IC50: 100 to 1000 nM

## CCCOC(=O)Nc1cccc(-c2c(C)cnc3c(C(=O)c4cccs4)cnn23)c1 [Example 208, propyl 3-[6-methyl-3-(thien-2-ylcarbonyl)pyrazolo[1,5-a]pyrimidin-7-yl]phenylcarbamate]
[1]; [4]
  IC50: 10 to 50 µM
LoVo Colon cell line; [5]
  IC50: 100 to 1000 nM

## CCCCC(=O)Nc1cccc(-c2ccnc3c(C(=O)c4cccs4)cnn23)c1 [Example 152, N-3{3-[3-(thien-2-ylcarbonyl)pyrazolo[1,5-a]pyrimidin-7-yl]phenyl}pentanamide]
[1]; 80S14 p21-deficient cells, 5 days incubation, SRB, read-out: IC50 for 80SI4
  IC50: < 1 µM
LoVo Colon cell line; LoVo colon cells, 4 days incubation, SRB
  IC50: < 100 nM

## Cc1cc(-c2cccc(NC(=O)OCC(C)(C)C)c2)n2ncc(C(=O)c3cccs3)c2n1 [Example 200, neopentyl 3-[5-methyl-3-(thien-2-ylcarbonyl)pyrazolo[1,5-a]pyrimidin-7-yl]phenylcarbamate]
[1]; [4]
  IC50: < 1 µM
LoVo Colon cell line; [5]
  IC50: 100 to 1000 nM

## CN(C)Cc1ccc(-c2cccc(-c3ccnc4c(C(=O)c5cccs5)cnn34)c2)cc1 [Example 463, (7-{4′-[(Dimethylamino)methyl]-1,1′-biphenyl-3-yl}pyrazolo[1,5-a]pyrimidin-3-yl)(thien-2-yl)methanone]
[1]; [2]
  IC50: < 1 µM
LoVo Colon cell line; [3]
  IC50: < 100 nM

## CC(C)C(=O)Nc1cccc(-c2ccnc3c(C(=O)c4cccs4)cnn23)c1 [Example 273, 2-Methyl-N-{3-[3-(2-thienylcarbonyl)pyrazolo[1,5-a]pyrimidin-7-yl]phenyl}propanamide]
[1]; Homo sapiens, 80S14, 120 h, read-out: IC50 for 80S14 (uM)
  IC50: < 1 µM
LoVo Colon cell line; Homo sapiens, LoVo, 96 h
  IC50: 100 to 1000 nM

## COc1cccc(-c2cnn3c(-c4cccc(NC(=O)CC(C)C)c4)ccnc23)c1 [Example 478, N-{3-[3-(3-Methoxyphenyl)pyrazolo[1,5-a]pyrimidin-7-yl]phenyl}-3-methylbutanamide]
[1]; [2]
  IC50: 10 to 50 µM
LoVo Colon cell line; [3]
  IC50: 1000 to 20000 nM

## CC(C)CC(=O)Nc1cccc(-c2ccnc3c(-c4ccc5c(c4)OCO5)cnn23)c1 [Example 481, N-{3-[3-(1,3-Benzodioxol-5-yl)pyrazolo[1,5-a]pyrimidin-7-yl]phenyl}-3-methylbutanamide]
[1]; [2]
  IC50: 1 to 10 µM
LoVo Colon cell line; [3]
  IC50: 100 to 1000 nM

## Cc1ccccc1CNc1cccc(-c2ccnc3c(C(=O)c4cccs4)cnn23)c1 [Example 377, (7-{3-[(2-Methylbenzyl)amino]phenyl}pyrazolo[1,5-a]pyrimidin-3-yl)(thien-2-yl)methanone]
[1]; [2]
  IC50: 1 to 10 µM
LoVo Colon cell line; [3]
  IC50: 100 to 1000 nM

## Cc1cnc2c(C(=O)c3cccs3)cnn2c1-c1cccc(NC(=O)OCC(C)(C)C)c1 [Example 214, neopentyl 3-[6-methyl-3-(thien-2-ylcarbonyl)pyrazolo[1,5-a]pyrimidin-7-yl]phenylcarbamate]
[1]; [4]
  IC50: 10 to 50 µM
LoVo Colon cell line; [5]
  IC50: 1000 to 2000 nM

## CSCCOC(=O)Nc1cccc(-c2ccnc3c(C(=O)c4cccs4)cnn23)c1 [Example 178, 2-(methylthio)ethyl 3-[3-(thien-2-ylcarbonyl)pyrazolo[1,5-a]pyrimidin-7-yl]phenylcarbamate]
[1]; [4]
  IC50: < 1 µM
LoVo Colon cell line; [5]
  IC50: < 100 nM

## O=C(c1cccs1)c1cnn2c(-c3cccc(NCc4ccccc4Cl)c3)ccnc12 [Example 368, (7-{3-[(2-Chlorobenzyl)amino]phenyl}pyrazolo[1,5-a]pyrimidin-3-yl)(thien-2-yl)methanone]
[1]; [2]
  IC50: 1 to 10 µM
LoVo Colon cell line; [3]
  IC50: 100 to 1000 nM

## O=C(c1cccs1)c1cnn2c(-c3ccc(F)c(N(C(=O)OCC(Cl)(Cl)Cl)C(=O)OCC(Cl)(Cl)Cl)c3)ccnc12 [Example 357, bis(2,2,2-Trichloroethyl) 2-fluoro-5-[3-(thien-2-ylcarbonyl)pyrazolo[1,5-a]pyrimidin-7-yl]phenylimidodicarbonate]
[1]; [2]
  IC50: < 1 µM
LoVo Colon cell line; [3]
  IC50: < 100 nM

## CC(C)CC(=O)Nc1cccc(-c2ccnc3c(-c4cccc(N(C)C)c4)cnn23)c1 [Example 465, N-(3-{3-[3-(Dimethylamino)phenyl]pyrazolo[1,5-a]pyrimidin-7-yl}phenyl)-3-methylbutanamide]
[1]; [2]
  IC50: < 1 µM
LoVo Colon cell line; [3]
  IC50: < 100 nM

## Cc1cc(C)cc(-c2cnn3c(-c4cccc(-c5nnn[nH]5)c4)ccnc23)c1 [Example 491, 3-(3,5-Dimethylphenyl)-7-[3-(1H-tetraazol-5-yl)phenyl]pyrazolo[1,5-a]pyrimidine]
[1]; [2]
  IC50: 1 to 10 µM
LoVo Colon cell line; [3]
  IC50: 1000 to 20000 nM

## CN(C)C(=O)Nc1cccc(-c2ccnc3c(C(=O)c4cccs4)cnn23)c1 [Example 46, N,N-dimethyl-N′-{3-[3-(thien-2-ylcarbonyl)pyrazolo[1,5-a]pyrimidin-7-yl]phenyl}urea]
[1]; [4]
  IC50: 1 to 10 µM
LoVo Colon cell line; [5]
  IC50: 1000 to 2000 nM

## CCOC(=S)Nc1cccc(-c2ccnc3c(C(=O)c4cccs4)cnn23)c1 [Example 332, O-Ethyl 3-[3-(thien-2-ylcarbonyl)pyrazolo[1,5-a]pyrimidin-7-yl]phenylthiocarbamate]
[1]; [2]
  IC50: < 1 µM
LoVo Colon cell line; [3]
  IC50: < 100 nM
